Results on 2 molecules are retold here after patent US10766888B1, “HMOX1 inducers” (Mitobridge Inc., priority 2019, dated 2020).

By EC50 is commonly meant the midpoint of the concentration-response curve. The inhibition is the percentage by which the read-out fell short of the control.

Counter-ions that a name gives are not always drawn. Like-named read-outs stand apart in the source and are kept apart here.

Data set [1] can be described thus: PK study: plasma and brain levels in mice. The conditions noted are these: mouse, plasma, measured in a previous study. It counts as in vivo, C57BL/6 mice.
The test system of data set [2] is Human Heme Oxygenase-1 (HMOX-1). As to the kind of experiment: ELISA assay to measure human heme oxygenase-1 (HMOX-1) in HepG2 lysate. The format is cell-based. A digest of the protocol:
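Treated HepG2 cells were lysed in PBS with 0.5% Triton X100, 1 mM EDTA and protease inhibitors, and lysates were diluted 1:20. HO-1 was measured by sandwich ELISA (biotinylated detection antibody, streptavidin-HRP, chemiluminescence) at room temperature against a standard curve from 20 ng/ml. EC50 and fold change were expressed relative to DMSO control.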
Background: ELISA stands for enzyme-linked immunosorbent assay.

The nature of data set [3]: PD study: compound concentration in mouse liver. It counts as in vivo, C57BL/6 mice. The conditions noted are these: male, C57BL/6, mouse, 50 mg/kg, 50 mpk oral. As for the experimental part: 9-10 week old male C57BL/6 mice were dosed orally with 50 mg/kg of vehicle or compound formulated in 5% w/v tween 80 and 0.5% methyl cellulose. At indicated time points (3 and 6 hours or or 4 and 8 hours post-dosing as shown in the results below), whole blood was collected, animal was sacrificed and liver was collected. Blood samples were transferred to vials containing 4 μL of 10% w/v EDTA, centrifuged at 6000 rpm for 8 in below 10° C. to obtain plasma. Samples were frozen and later processed for HMOX1 protein levels as indicated below: […]

The target in data set [4] is hERG channel (Homo sapiens, UniProt Q12809). As to the kind of experiment: hERG manual patch clamp assay. The format is cell-based. The conditions noted are these: HEK 293 cells stably expressing hERG channel, pH 7.35, 10 μM compound. In a few lines:
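Whole-cell manual patch clamp on doxycycline-induced HEK293 cells stably expressing hERG. Tail current measured at −50 mV after a 4.8 s step to +30 mV from −90 mV holding; test compounds at 10 μM, 0.1% DMSO, vs vehicle baseline. Percent inhibition from peak tail current, […].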

Data set [5] has as its system FTH1. Put plainly: FTH1 mRNA expression in HepG2 cells (Nanostring). The conditions noted are these: 24 hours treatment. The format is cell-based, human. As to the method:
RNA Isolation and Quantification of Gene Expression
HepG2 cells were seeded at 250 k/well in 12-well tissue culture plates coated with collagen (collagen I, rat tail (thin plate coating); ENZO Life Sciences) for approximately 24 hours. The seeded cells were then treated with dose titration of the compound of Example 17 or dimethyl fumarate (DMF) (a Nrf2 activator; Fisher Scientific) via media change, with biological triplicates performed for each treatment. After approximately 24 hours of treatment, cells were visually inspected to confirm that no toxicity occurred with compound treatment. The treated cells were washed with PBS, aspirated, parafilmed and frozen at −80° C. prior to RNA isolation. RNA was isolated using Machery-Nagel isolation kit (NucleoSpin® RNA: catalog 740955.250) and then quantitated using ThermoFisher Nanodrop.
RNA was diluted for Nanostring gene expression analysis. The diluted RNA at an input of 200 ng RNA was run on a Nanostring instrument, which was supported with nCounter® SPRINT Profiler System and nSolver4.0 Software, nCounter® SPRINT Cartridge, nCounter® SPRINT Reagent Pack, and nCounter® SPRINT Hybridization Buffer. Analysis was done manually using raw data obtained from nSolver4.0 Software. CLTC, POLR2A, RPL27 and TBP were used as reference genes for normalization. Data was graphed as fold change compared to DMSO treatment. […]

Chain of hERG channel (Q12809 whole entry): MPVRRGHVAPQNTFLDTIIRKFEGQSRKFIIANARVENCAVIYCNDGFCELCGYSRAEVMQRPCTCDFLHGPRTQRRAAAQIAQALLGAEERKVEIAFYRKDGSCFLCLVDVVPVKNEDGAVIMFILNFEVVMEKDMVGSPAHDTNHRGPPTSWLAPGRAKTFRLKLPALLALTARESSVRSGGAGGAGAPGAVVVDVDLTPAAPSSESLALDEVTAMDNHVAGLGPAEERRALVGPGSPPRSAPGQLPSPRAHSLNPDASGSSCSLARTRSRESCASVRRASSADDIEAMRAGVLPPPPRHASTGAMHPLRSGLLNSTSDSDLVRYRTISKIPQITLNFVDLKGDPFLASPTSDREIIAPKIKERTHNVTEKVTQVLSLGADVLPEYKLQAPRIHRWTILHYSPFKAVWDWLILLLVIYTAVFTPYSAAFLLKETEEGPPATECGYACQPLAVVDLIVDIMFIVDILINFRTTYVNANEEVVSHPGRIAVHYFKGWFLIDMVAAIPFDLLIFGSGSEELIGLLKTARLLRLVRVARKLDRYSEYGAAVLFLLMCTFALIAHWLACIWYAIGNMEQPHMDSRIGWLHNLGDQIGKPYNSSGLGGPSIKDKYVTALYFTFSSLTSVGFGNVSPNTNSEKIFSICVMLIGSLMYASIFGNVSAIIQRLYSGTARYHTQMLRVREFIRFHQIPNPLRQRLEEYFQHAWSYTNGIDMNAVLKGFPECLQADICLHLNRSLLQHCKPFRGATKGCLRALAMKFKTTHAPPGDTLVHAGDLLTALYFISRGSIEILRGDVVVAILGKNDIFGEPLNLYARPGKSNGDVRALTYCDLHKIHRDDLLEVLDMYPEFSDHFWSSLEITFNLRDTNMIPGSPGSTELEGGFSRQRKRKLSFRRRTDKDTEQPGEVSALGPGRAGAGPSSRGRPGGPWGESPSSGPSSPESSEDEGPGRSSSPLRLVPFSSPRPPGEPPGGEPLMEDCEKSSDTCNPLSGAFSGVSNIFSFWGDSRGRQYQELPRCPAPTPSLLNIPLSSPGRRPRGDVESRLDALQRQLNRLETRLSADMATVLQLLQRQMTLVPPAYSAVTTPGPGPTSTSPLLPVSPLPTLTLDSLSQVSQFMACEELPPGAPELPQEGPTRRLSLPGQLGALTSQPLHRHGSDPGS

Consider `Cn1c(Nc2nc3ccc(OC(F)(F)F)cc3s2)nc2cc(C(=O)NCCOCCO)ccc21` [Comparator 1, 1-methyl-2-(6-trifluoromethoxy-benzothiazol-2-ylamino)-1H-benzoimidazole-5-carboxylic acid [2-(2-hydroxy-ethoxy)-ethyl]-amide, reference compound], for which the concentration at 1 h in data set [1] (1 hr) came out at 2070 ± 318 ng/mL. Besides, the concentration at 4 h in data set [1] (4 hr) was determined as 288 ± 124 ng/mL. In addition, the EC50 amounted to 900 nM in data set [2] (HepG2, human HMOX1, as listed in Table 5, read-out: HMOX1 EC50 h) and 900 nM in data set [2] (human HMOX1 protein level in HepG2 lysate, * = average of 2 or more EC50 determinations, NA = Not Active, read-out: EC50). For the same molecule, the concentration at 3 h in data set [3] (3 h, read-out: Liver Conc uM (3 h)) came to 12.2 µM. In data set [3] (6 h, read-out: Liver Conc uM (6 h)), the concentration at 6 h turned out to be 1.3 µM. The molecule also displayed an inhibition at 10 µM in data set [4] of 66%.

With `COC(=O)/C=C/C(=O)OC` [DMF, dimethyl fumarate, reference compound], the “FTH1 expression fold increase (in words)” value in data set [5] is on record as “comparable fold increases”.
